Where a SMILES comes first, the peptide text is derived from it. The star is where a group is joined. Cbz = O=C(OCc1ccccc1)*; CH2F = FC*
Assays:
Type in all cases: cell-based, Chinese Hamster
[1] = test system: Aβ production in CHO cells overexpressing APP751 and PS1 WT; assay: Secreted Aβ ELISA in CHO cells overexpressing APP751 and PS1 during induced apoptosis
Protocol: We examined Aβ generation induced by apoptosis in CHO cell lines. We used CHO cell lines stably overexpressing both APP751 and PS1 WT. For the induction of apoptosis, we used 1 μM staurosporine (STS) in serum free media. Secreted Aβ was measured in the conditioned media of cells treated with STS for 6 hrs using a sensitive ELISA assay [courtesy of Dr. Dennis Selkoe; M. S. Wolfe et al., Nature 398, 513-7 (1999)].
Treatment with either STS for 6 hrs or etoposide for 12 hrs induced from 10 to 20% of cell death assayed by MTT assay, which is a colorimetric short-term suspension culture assay in which the yellow tetrazolium salt (MTT) is reduced in metabolically active cells to form insoluble purple formazan crystals, which are solubilized by the addition of a detergent.
Chinese Hamster Ovary (CHO) cells expressing APP751 and BACE (CAB), CHO cells expressing full-length APP and wild-type PS1 (CHO-APP751/PS1) or expressing C99 and wild-type PS1 (CHO-CC99/PS1), H4 human neuroglioma cells expressing APP751 (H4-APP751), mouse embryonic fibroblast (MEF), embryonic stem (ES) cells, and human epithelial A431 cells were grown as described previously (Marambaud, P. et al., Embo J 21, 1948-56 (2002); Cai, H. et al., Nat Neurosci 4, 233-4 (2001); Sato, N. et al., Nat Cell Biol 2, 863-70 (2000); Puglielli, L., Ellis, B. C., Saunders, A. J. & Kovacs, D. M., J Biol Chem 278, 19777-83 (2003); Wolfe, M. S. et al., Nature 398, 513-7 (1999)). For the induction of apoptosis, we used staurosporine or etoposide (Calbiochem (EMD Biosciences, San Diego, Calif.)). For Aβ measurements, cells were seeded at the density of 0.5×10^6 cells per well in 6 well plates. After 48 hours, cells were treated with either STS (1 μM) for 6 hours. […] For time-course experiments, cells were seeded at the density of 2×10^6 cells per 100 mm dish and treated with STS (1 μM) or etoposide (100 μg/mL). At different time points (0, 3, 6, 9, 12 and 24 hours), the cells were scraped, centrifuged and then lysed in buffer containing 1% NP40. Western blot analysis was performed as previously described (Tesco, G., Koh, Y. H. & Tanzi, R. E., J Biol Chem 278, 46074-80 (2003)). Densitometry analysis was performed on a Macintosh computer using the public domain NIH Image program (developed at the U.S. National Institutes of Health and available on the Internet at http://rsb.info.nih.gov/nih-image/).
Secreted Aβ1-total was measured in the conditioned media of untreated cells or of cells treated with STS or STS plus zVAD using a sensitive ELISA (Wolfe, M. S. et al., Nature 398, 513-7 (1999). At least three different experiments were carried out and each experiment was performed at least in triplicate.

BACE [2] = assay: BACE protein levels by Western blot in CHO cells overexpressing APP751 and PS1WT
Text: We examined whether the apoptosis-mediated increase in Aβ generation was associated with changes in the levels and activities of BACE and β-secretase. […] In addition, upregulation of BACE occured also in H4 human neuroglioma (FIG. 3B) and in BACE+/+ mouse fibroblasts (FIG. 3C). BACE−/− mouse fibroblasts were used to show the specificity of the antibody used to detect BACE (FIG. 3C).
Chinese Hamster Ovary (CHO) cells expressing APP751 and BACE (CAB), CHO cells expressing full-length APP and wild-type PS1 (CHO-APP751/PS1) or expressing C99 and wild-type PS1 (CHO-CC99/PS1), H4 human neuroglioma cells expressing APP751 (H4-APP751), mouse embryonic fibroblast (MEF), embryonic stem (ES) cells, and human epithelial A431 cells were grown as described previously (Marambaud, P. et al., Embo J 21, 1948-56 (2002); Cai, H. et al., Nat Neurosci 4, 233-4 (2001); Sato, N. et al., Nat Cell Biol 2, 863-70 (2000); Puglielli, L., Ellis, B. C., Saunders, A. J. & Kovacs, D. M., J Biol Chem 278, 19777-83 (2003); Wolfe, M. S. et al., Nature 398, 513-7 (1999)). For the induction of apoptosis, we used staurosporine or etoposide (Calbiochem (EMD Biosciences, San Diego, Calif.)). For Aβ measurements, cells were seeded at the density of 0.5×10^6 cells per well in 6 well plates. After 48 hours, cells were treated with either STS (1 μM) for 6 hours. […]

BACE [3] = assay: BACE protein levels by Western blot and densitometry in CAB cells
Protocol: (§1) Chinese Hamster Ovary (CHO) cells expressing APP751 and BACE (CAB), CHO cells expressing full-length APP and wild-type PS1 (CHO-APP751/PS1) or expressing C99 and wild-type PS1 (CHO-CC99/PS1), H4 human neuroglioma cells expressing APP751 (H4-APP751), mouse embryonic fibroblast (MEF), embryonic stem (ES) cells, and human epithelial A431 cells were grown as described previously (Marambaud, P. et al., Embo J 21, 1948-56 (2002); Cai, H. et al., Nat Neurosci 4, 233-4 (2001); Sato, N. et al., Nat Cell Biol 2, 863-70 (2000); Puglielli, L., Ellis, B. C., Saunders, A. J. & Kovacs, D. M., J Biol Chem 278, 19777-83 (2003); Wolfe, M. S. et al., Nature 398, 513-7 (1999)). For the induction of apoptosis, we used staurosporine or etoposide (Calbiochem (EMD Biosciences, San Diego, Calif.)). For Aβ measurements, cells were seeded at the density of 0.5×10^6 cells per well in 6 well plates. After 48 hours, cells were treated with either STS (1 μM) for 6 hours. In order to inhibit caspase activation a sister plate of cells was pre-treated with zVAD ([…], Enzyme Systems Products) for 1 hour before STS treatment. For time-course experiments, cells were seeded at the density of 2×10^6 cells per 100 mm dish and treated with STS (1 μM) or etoposide (100 μg/mL). At different time points (0, 3, 6, 9, 12 and 24 hours), the cells were scraped, centrifuged and then lysed in buffer containing 1% NP40. Western blot analysis was performed as previously described (Tesco, G., Koh, Y. H. & Tanzi, R. E., J Biol Chem 278, 46074-80 (2003)). Densitometry analysis was performed on a Macintosh computer using the public domain NIH Image program (developed at the U.S. National Institutes of Health and available on the Internet at http://rsb.info.nih.gov/nih-image/).
It has been previously shown that overexpression of BACE enhances β-secretase cleavage of APP leading to the accumulation of intracellular C99 (Vassar, R. et al., Science 286, 735-41 (1999)). We first asked whether apoptosis/caspase activation leads to accumulation of C99 owing to increased β-secretase activity.

[4] = test system: γ-secretase complex proteins; assay: γ-secretase complex protein levels by Western blot in CHO cell lines
Protocol: as §1, with “Western blot analysis was performed as previously described (Tesco, G., Koh, Y. H. & Tanzi, R. E., J Biol Chem 278, 46074-80 (2003)). Densitometry analysis was performed on a Macintosh computer using the public domain NIH Image program (developed at the U.S. National Institutes of Health and available on the Internet at http://rsb.info.nih.gov/nih-image/).” left out

[5] = 1 μM STS in serum free media, 6 hrs, p<0.05 t-test
[6] = etoposide 100 μg/mL + 200 μM zVAD, 12 hrs, compared to etoposide treated cells
[7] = zVAD 200 μM pretreated 1 hr before STS, compared to STS-treated cells, p<0.05

SMILES: CN[C@@H]1C[C@H]2O[C@@](C)([C@@H]1OC)n1c3ccccc3c3c4c(c5c6ccccc6n2c5c31)C(=O)NC4 [STS, staurosporine]
- Secreted Aβ1-42 [1, 5]: significantly increased
- Secreted Aβtotal [1, 5]: significantly increased
- Aβ1-total increase ([1]; STS-treated CHO-APP751/PS1 cells, 6 hours): ~2.5 fold
- BACE protein levels (BACE [2]; after 24 hrs of STS treatment): significant increase
- BACE protein levels increase (BACE [3]; after 6 hours or 24 hours of STS treatment, CAB cells): ~4 fold
- nicastrin and Pen2 protein levels ([4]; STS treatment, CHO cells overexpressing APP751 and PS1WT and mouse fibroblasts): up-regulated
- endogenous nicastrin protein levels ([4]; six hours after STS treatment, CAB cells): increase

SMILES: COC(=O)C[C@H](NC(=O)[C@H](C)NC(=O)[C@@H](NC(=O)OCc1ccccc1)C(C)C)C(=O)CF [zVAD] (Cbz-Val-Ala-Asp(OMe)-CH2F)
- Secreted Aβ42 [1, 6]: significantly attenuate
- Secreted Aβtotal [1, 6]: significantly attenuate
- Secreted Aβ1-42 [1, 7]: significantly reduced
- Secreted Aβtotal [1, 7]: significantly reduced
- BACE upregulation during STS-induced apoptosis (BACE [2]; zVAD 100 μM, all cell types (CHO, H4 human neuroglioma, BACE+/+ mouse fibroblasts)): prevented BACE upregulation
- BACE accumulation during STS-induced apoptosis (BACE [3]; zVAD, both CAB and H4-APP751 cells): prevented BACE accumulation
